Experiments:
patients [1] = settings: cited from earlier work
[2] = tested on: psychiatric patients suffering from schizophrenia; assay: Clinical trial of flumezapine in psychiatric patients suffering from schizophrenia; format: in vivo, human
Source text: The lead compound from this group, flumezapine, (7-fluoro-2-methyl-10-(4-methyl-1-piperazinyl)-4H-thieno[2,3-b][1,5]-benzodiazepine), was developed to the stage of being clinically administered to psychiatric patients suffering from schizophrenia. A total of 17 patients received treatment with flumezapine before the clinical trial was terminated after consultation with the U.S. Food and Drug Administration, because of an unacceptably high incidence of raised enzyme levels in the treated patients. […] In respect of its tendency to raise liver enzyme levels, flumezapine is similar to chlorpromazine, an antipsychotic which has long been in use but whose safety has been called into question.

dogs = assay: Dog toxicity studies, cholesterol levels; format: in vivo; settings: dosage of 8 mg/kg stated for the 2-ethyl compound
mice [3] = assay: Apomorphine-induced climbing behaviour; format: in vivo
mice [4] = assay: Apomorphine-induced hypothermia; format: in vivo
[5] = tested on: noradrenergic α-receptors; assay: Pharmacological tests, noradrenergic α-receptors
Source text: These properties indicate that the compound is a potential neuroleptic with relaxant, anxiolytic and anti-emetic properties, and may be useful in treating psychotic conditions such as, but not limited to, schizophrenia, schizophreniform diseases and mania. At lower doses the compound is indicated for use in the treatment of mild anxiety states.

5-HT-1C receptor = molecular target: T1, 5-HT-1C receptor (Homo sapiens, UniProt P28335); assay: Activity at the 5-HT-1C receptor; format: binding
T1 sequence (P28335 33-458): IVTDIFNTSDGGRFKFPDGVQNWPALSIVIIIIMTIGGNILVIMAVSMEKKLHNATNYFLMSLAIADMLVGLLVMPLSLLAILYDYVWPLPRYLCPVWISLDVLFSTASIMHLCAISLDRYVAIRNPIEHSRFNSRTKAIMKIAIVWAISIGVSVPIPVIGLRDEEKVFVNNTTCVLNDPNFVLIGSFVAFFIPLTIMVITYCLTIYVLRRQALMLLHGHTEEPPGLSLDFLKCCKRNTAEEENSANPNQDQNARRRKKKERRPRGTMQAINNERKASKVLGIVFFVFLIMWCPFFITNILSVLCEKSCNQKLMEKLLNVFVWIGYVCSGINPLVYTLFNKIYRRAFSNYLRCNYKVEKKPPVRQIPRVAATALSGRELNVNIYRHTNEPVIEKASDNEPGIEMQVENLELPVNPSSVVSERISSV

rats [6] = assay: Multiple conflict schedule (Geller and Seifter); format: in vivo; settings: dosed orally 60 minutes before testing
Source text: Moore, Nicholas A. et al., The Journal of Pharmacology and Experimental Therapeutics. 545-551, 262:2 (1992). The test measures characteristic changes in rates of responding associated with anxiolytic agents. The conflict procedure results are indicative of favorable anxiolytic activity.
The conflict procedure used was based on the method of Geller and Seifter, Psychopharmacologia 1: 482-492, (1960). Rats were trained on a multiple schedule consisting of three components. Individual components were as follows: 1) for 9 minutes, lever pressing was reinforced on a variable interval 30 second schedule (VI 30, reward). This period was signaled by illumination of the houselight alone. 2) During the following 3-minute period, lever presses were recorded but had no programmed consequence (time-out). 3) Lever pressing was reinforced according to a fixed ratio 10 second food presentation (FR10) for 3 minutes; however, each reinforced response was accompanied by an electric current (0.5 mA) being applied to the grid floor for 500 msec (conflict). This component was signaled by illumination of the houselight and three cue lights on the front panel. This sequence of three components (reward/time-out/conflict) was presented twice in the same order during the daily 30 minute session.
After the training procedure, drug testing was initiated. […]

patients [7] = settings: compared with flumezapine
rats [8] = assay: Conditioned avoidance response; format: in vivo; settings: Rattus norvegicus, read-out: ED50, inhibition of conditioned avoidance response
[9] = Studies using radiolabelled compound, saliva residues; format: in vivo
Protocol: For example, in the treatment of adult humans, dosages of from 0.25 to 30 mg, preferably from 1 to 20 mg, per day may be used. A once a day dosage is normally sufficient, although divided doses may be administered. For treatment of psychotic disorders a dose range of from 1 to 20 mg, preferably 2.5 to 15 mg per day is suitable, whereas for mild anxiety states a lower dosage range, such as from 0.25 to 5 mg, preferably 1 to 5 mg, may be more appropriate. In choosing a suitable regimen for patients suffering from psychotic illness it may frequently be necessary to begin with a dosage of from 1 to 20 mg per day and when the illness is under control to reduce to a dosage as low as 1 mg per day.

D-1 and D-2 receptors = assay: Prevention of EEDQ disruption of the apomorphine-induced climbing response; format: in vivo; settings: 24 hour pretreatment with EEDQ

## CN1CCN(C2=Nc3cc(Cl)ccc3Nc3ccccc32)CC1 [clozapine]
Patients [1]
  reported clinical side effects: cause agranulocytosis in some patients

## Cc1cc2c(s1)Nc1ccc(F)cc1N=C2N1CCN(C)CC1 [flumezapine, 7-fluoro-2-methyl-10-(4-methyl-1-piperazinyl)-4H-thieno[2,3-b][1,5]-benzodiazepine]
[2]; 17 patients treated, trial terminated
  enzyme levels CPK, SGOT and SGPT in blood samples: in substantial excess of normal values
[2]; clinical trials
  emergence of extrapyramidal side effects as measured on the AIMS scale: two of the patients showed the emergence of extrapyramidal side effects

## CCc1cc2c(s1)Nc1ccccc1N=C2N1CCN(C)CC1 [2-ethyl-4-(4-methyl-1-piperazinyl)-10H-thieno[2,3-b][1,5]benzodiazepine, reference compound]
dogs
  rise in cholesterol levels: four out of eight dogs showed a significant rise in cholesterol levels

## O=C(CCCN1CCC(O)(c2ccc(Cl)cc2)CC1)c1ccc(F)cc1 [haloperidol]
Patients [1]
  reported clinical side effects: high incidence of extrapyramidal symptoms

## Cc1cc2c(s1)Nc1ccccc1N=C2N1CCN(C)CC1
Mice [3]
  dose antagonizing apomorphine-induced climbing behaviour: less than 10 mg/kg
Mice [4]
  dose antagonizing apomorphine-induced hypothermia: less than 10 mg/kg
[5]
  activity at noradrenergic α-receptors: antagonist activity
5-HT-1C receptor
  activity at the 5-HT-1C receptor: active
Rats [6]
  active dose in multiple conflict schedule: less than 5 mg/kg
Patients [7]
  plasma levels of creatinine phosphokinase (CPK): lower than with flumezapine
dogs
  rise in cholesterol levels: did not show any rise in cholesterol levels
Rats [8]
  ED50: 4 to 7 mg/kg
[9]
  residues in saliva: residues have been detected in the saliva
D-1 and D-2 receptors
  active dose, prevention of disruption of climbing response by EEDQ: less than 10 mg/kg
